Patent US8653087B2, “Pyrido [5, 4-D] pyrimidines as cell proliferation inhibitors” (Boehringer Ingelheim International GmbH, priority 2008, dated 2014)

target: B-Raf (V600E)-kinase (Homo sapiens (Human), UniProt P15056, V600E); assay: Kinase test B-RAF (V600E); format: biochemical; conditions: B-RAF (V600E) kinase test, 250 μM ATP
Method in brief: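 B-Raf (V600E) (0.5 ng) preincubated with compound 24 h at RT (5% DMSO), then reacted 60 min at RT with 250 μM ATP and biotinylated MEK1 as substrate. Phospho-MEK (Ser217/221) captured on streptavidin and detected by europium time-resolved fluorescence; IC50 from dose-response curves.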

Chain of B-Raf (V600E)-kinase (P15056 whole entry V600E): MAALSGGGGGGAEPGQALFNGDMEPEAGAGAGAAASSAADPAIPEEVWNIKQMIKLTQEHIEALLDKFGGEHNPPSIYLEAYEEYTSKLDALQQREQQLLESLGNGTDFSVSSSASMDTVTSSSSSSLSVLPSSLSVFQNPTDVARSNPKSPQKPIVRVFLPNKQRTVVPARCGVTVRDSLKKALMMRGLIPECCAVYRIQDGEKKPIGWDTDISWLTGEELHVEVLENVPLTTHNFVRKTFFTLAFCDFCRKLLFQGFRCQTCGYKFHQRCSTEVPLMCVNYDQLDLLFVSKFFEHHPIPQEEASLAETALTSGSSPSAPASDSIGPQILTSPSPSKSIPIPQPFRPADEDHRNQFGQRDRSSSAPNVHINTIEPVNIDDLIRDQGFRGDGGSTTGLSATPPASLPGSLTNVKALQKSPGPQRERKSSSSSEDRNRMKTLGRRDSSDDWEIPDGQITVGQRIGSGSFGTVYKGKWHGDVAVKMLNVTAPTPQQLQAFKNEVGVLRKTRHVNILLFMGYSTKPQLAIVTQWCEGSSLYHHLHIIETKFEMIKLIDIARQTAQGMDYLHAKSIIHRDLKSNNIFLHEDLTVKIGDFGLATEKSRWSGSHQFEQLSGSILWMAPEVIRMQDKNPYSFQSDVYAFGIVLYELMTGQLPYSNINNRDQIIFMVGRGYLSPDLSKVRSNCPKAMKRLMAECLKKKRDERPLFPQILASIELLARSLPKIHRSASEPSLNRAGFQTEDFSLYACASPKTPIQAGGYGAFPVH

Compound	IC50 [nM]
Cc1ccc(C(=O)Nc2cc(C(C)(C)C)on2)cc1Nc1ncnc2c(N)nc(N3CCN(C)CC3)nc12 [I-9]	3
Cc1ccc(C(=O)Nc2nnc(C(F)(F)F)s2)cc1Nc1ncnc2cnc(N3CCN(C)CC3)nc12 [III-296]	198
Cc1ccc(C(=O)Nc2cc(C(C)(C)C)on2)cc1Nc1ncnc2cnc(N(C)CC3CCOC3)nc12 (centres unmarked) [III-360]	3
Cc1ccc(C(=O)Nc2ccc(Cl)c(C(F)(F)F)c2)cc1Nc1ncnc2cnc(N3CCN(C)CC3)nc12 [III-300]	4
COc1ccc(NC(=O)c2ccc(C)c(Nc3ncnc4cnc(-n5cnc(C)c5)nc34)c2)cc1C(F)(F)F [III-549]	8
Cc1ccc(C(=O)Nc2cc(C(C)(C)C)n[nH]2)cc1Nc1ncnc2c(N)nc(N3CCN4CCCCC4C3)nc12 (centres unmarked) [I-43]	4
COc1ccc(NC(=O)c2ccc(C)c(Nc3ncnc4cnc(N5CCC(N6CCCCC6)CC5)nc34)c2)cc1C(F)(F)F [III-556]	7
CC(C)(C#N)c1cccc(C(=O)Nc2cccc(Nc3ncnc4c(N)ncnc34)c2)c1 [VIII-2]	30
Cc1ccc(C(=O)NC2CC2)cc1Nc1ncnc2cnc(N3CCN(C)CC3)nc12 [III-191]	> 15000
COc1ccc(C(=O)Nc2cc(C(C)(C)C)on2)cc1Nc1ncnc2cnc(N(C)C)nc12 [III-83]	8
Cc1ccc(C(=O)Nc2cccc(C(F)(F)F)c2)cc1Nc1ncnc2cnc(N(C)CCN(C)C)nc12 [III-232]	4
Cc1ccc(C(=O)Nc2cccc(C(F)(F)F)c2)cc1Nc1ncnc2c(N)nc(N3CCN(C4CCN(C)CC4)CC3)nc12 [I-56]	< 1
Cc1ccc(C(=O)Nc2cc(C(C)(C)C)on2)cc1Nc1ncnc2cnc(N3CCN(CCN4CCOCC4)CC3)nc12 [III-370]	1
Cc1ccc(C(=O)NCC2CCOC2)cc1Nc1ncnc2cnc(N3CCCCC3)nc12 (centres unmarked) [III-212]	> 15000
Cc1ccc(C(=O)Nc2ccc3c(c2)C(C)(C)C(=O)N3CCN2CCCC2)cc1Nc1ncnc2cnc(N3CCN(C)CC3)nc12 [III-186]	26
Cc1ccc(C(=O)Nc2cc(N(C)CCN(C)C)cc(C(F)(F)F)c2)cc1Nc1ncnc2cnc(NCc3ccccn3)nc12 [III-172]	2
Cc1cn(-c2cc(NC(=O)c3ccc(C)c(Nc4ncnc5cnc(N6CC[C@H](F)C6)nc45)c3)cc(C(F)(F)F)c2)cn1 [III-454]	4
CC(C)(C)c1cc(NC(=O)c2ccc(F)c(Nc3ncnc4cnc(NC5CCOC5)nc34)c2)no1 (centres unmarked) [III-381]	3
COc1ccc(C(C)(C)C)cc1NC(=O)c1ccc(C)c(Nc2ncnc3cnc(N4CCCCC4)nc23)c1 [III-249]	10
COc1ncc2ncnc(Nc3cc(NC(=O)c4ccc(OC)c(C(F)(F)F)c4)ccc3C)c2n1 [IV-42]	13
Cc1ccc(C(=O)Nc2cccc(C(C)(C)C#N)c2)cc1Nc1ncnc2cnc(NCC(C)C)nc12 [III-520]	2
Cc1ccc(NC(=O)c2cccc(C(F)(F)F)c2)cc1Nc1ncnc2c(N)nc(N3CCCN(C4CC4)CC3)nc12 [II-10]	25
Cc1ccc(C(=O)NC2CCCCC2)cc1Nc1ncnc2cnc(N3CC[C@@H](F)C3)nc12 [III-208]	> 2000
COc1ccc(NC(=O)c2ccc(C)c(Nc3ncnc4cnc(N5CCN(CCCN6CCCC6)CC5)nc34)c2)cc1C(F)(F)F [III-553]	2

Compound	IC50 [nM]
COc1ccc(NC(=O)c2ccc(Cl)c(Nc3ncnc4cnc(NCCN5CCOCC5)nc34)c2)cc1C(F)(F)F [III-15]	5
COc1ccc(C(F)(F)F)cc1NC(=O)c1ccc(C)c(Nc2ncnc3cnc(N4CCN(CC5CCN(C)CC5)CC4)nc23)c1 [III-413]	< 1
Cc1ccc(C(=O)Nc2cccc(C(F)(F)F)c2)cc1Nc1ncnc2c(N)nc(N3CCN(C(C)C)CC3)nc12 [I-64]	< 1
COc1ccc(NC(=O)c2ccc(F)c(Nc3ncnc4cnc(N(C)CCN5CCCC5)nc34)c2)cc1C(F)(F)F [III-33]	1
Cc1ccc(NC(=O)c2cccc(C(F)(F)F)c2)cc1Nc1ncnc2cnc(N3CCN(C)CC3)nc12 [IV-3]	12
Cc1ccc(C(=O)Nc2cc(C(C)(C)C)on2)cc1Nc1ncnc2cnc(N3C[C@H]4C[C@@H]3CN4C)nc12 [III-497]	2
Cc1ccc(C(=O)Nc2ccc(N(C)CCN(C)C)c(C(F)(F)F)c2)cc1Nc1ncnc2cnc(NCc3ccncc3)nc12 [III-136]	3
Cc1ccc(C(=O)NCc2ccc(C(C)(C)C)cc2)cc1Nc1ncnc2cnc(N(C)CCN(C)C)nc12 [III-233]	571
Cc1ccc(C(=O)Nc2cc(C(C)(C)C)nn2C)cc1Nc1ncnc2cnc(N3CCN(CC4CCN(C)CC4)CC3)nc12 [III-414]	7
Cc1ccc(C(=O)Nc2cc(N(C)CCN(C)C)cc(C(F)(F)F)c2)cc1Nc1ncnc2c(N)nc(N3CCOCC3)nc12 [I-76]	1
Cc1ccc(C(=O)Nc2cc(C(C)(C)C)n[nH]2)cc1Nc1ncnc2cnc(NCc3ccccc3)nc12 [III-512]	2
Cc1ccc(C(=O)Nc2cc(N(C)CCN(C)C)cc(C(F)(F)F)c2)cc1Nc1ncnc2cnc(N(C)CC3CCCCO3)nc12 (centres unmarked) [III-407]	10
Cc1ccc(NS(=O)(=O)C(C)C)cc1Nc1ncnc2cnc(N3CCN(C)CC3)nc12 [IV-58]	49
Cc1ccc(NC(=O)c2cccc(C(C)(C)C#N)c2)cc1Nc1ncnc2cnc(N(C)CCCN(C)C)nc12 [IV-22]	2
Cc1ccc(C(=O)Nc2cc(N3CCN(C)CC3)c(F)c(C(F)(F)F)c2)cc1Nc1ncnc2cnc(N3CCN(CC4CCN(C)CC4)CC3)nc12 [III-509]	5
CN1CCC(N2CCN(c3nc(N)c4ncnc(Nc5cc(C(=O)Nc6cccc(C(F)(F)F)c6)ccc5Br)c4n3)CC2)CC1 [I-28]	13
CC(C)(C)c1cc(NC(=O)c2ccc(F)c(Nc3ncnc4cnc(NC5CCOC5)nc34)c2)[nH]n1 (centres unmarked) [III-392]	3
COc1ccc(C(=O)Nc2ccc(OC)c(C(F)(F)F)c2)cc1Nc1ncnc2cnc(N(C)CCN(C)C)nc12 [III-18]	4
Cc1ccc(C(=O)Nc2cc(C(C)(C)C)n[nH]2)cc1Nc1ncnc2c(N)nc(N3CCN(CC4CCN(C)CC4)CC3)nc12 [I-13]	4
COCCN1CCN(c2ncc3ncnc(Nc4cc(C(=O)Nc5cc(C(C)(C)C)nn5C)ccc4C)c3n2)CC1 [III-421]	12
COCCN(C)c1ncc2ncnc(Nc3cc(C(=O)Nc4cc(C(C)(C)C)on4)ccc3C(F)(F)F)c2n1 [III-55]	> 150
Cc1ccc(C(=O)Nc2cc(CN3CCCC3)cc(C(F)(F)F)c2)cc1Nc1ncnc2cnc(NCC3CCOC3)nc12 (centres unmarked) [III-104]	1
Cc1ccc(C(=O)NC2CC2)cc1Nc1ncnc2cnc(N3CC[C@@H](F)C3)nc12 [III-210]	> 2000
Cc1ccc(C(=O)Nc2cc(N3CCN(CC(C)C)CC3)cc(C(F)(F)F)c2)cc1Nc1ncnc2cnc(N3CCOCC3)nc12 [III-460]	4

Compound	IC50 [nM]
Cc1ccc(C(=O)Nc2cccc(OC(F)(F)F)c2)cc1Nc1ncnc2cnc(N3CCOCC3)nc12 [III-410]	1
COc1ccc(NC(=O)c2ccc(C)c(Nc3ncnc4cnc(N5CCC(N(C)C)CC5)nc34)c2)cc1C(F)(F)F [III-435]	1
CCN1CCN(c2cc(NC(=O)c3ccc(C)c(Nc4ncnc5c(N)nc(N6CCCOCC6)nc45)c3)cc(C(F)(F)F)c2)CC1 [I-81]	3
Cc1ccc(C(=O)Nc2cc(C(C)(C)C)nn2C)cc1Nc1ncnc2cnc(NCc3ccccc3)nc12 [III-429]	2
Cc1ccc(C(=O)Nc2cc(OCCN3CCCC3)cc(C(F)(F)F)c2)cc1Nc1ncnc2cnc(N3CCOCC3)nc12 [III-523]	1
Cc1ccc(C(=O)Nc2cc(C(F)(F)F)ccn2)cc1Nc1ncnc2cnc(N3CCCCC3)nc12 [III-335]	8
CN1CCN(c2nc(N)c3ncnc(Nc4cc(C(=O)Nc5cccc(C(F)(F)F)c5)ccc4Br)c3n2)CC1 [I-26]	70
COc1ccc(NC(=O)c2ccc(C(F)(F)F)c(Nc3ncnc4cnc(N5CCN(C)CC5)nc34)c2)cc1C(F)(F)F [III-47]	95
Cc1ccc(C(=O)Nc2ccc3c(c2)OC(F)(F)C(F)(F)O3)cc1Nc1ncnc2cnc(N3CCN(CCN(C)C)CC3)nc12 [III-607]	1
CCN1CCN(c2cc(NC(=O)c3ccc(C)c(Nc4ncnc5cnc(N6CC[C@H](F)C6)nc45)c3)cc(C(F)(F)F)c2)CC1 [III-439]	4
Cc1ccc(C(=O)Nc2cc(C(C)(C)C)on2)cc1Nc1ncnc2cnc(NC3CC(N4CCN(C)CC4)C3)nc12 (centres unmarked) [III-592]	< 1
Cc1ccc(NC(=O)c2cccc(C(C)(C)C#N)c2)cc1Nc1ncnc2cnc(N(C)CC3CCOCC3)nc12 [IV-39]	4
Cc1ccc(NC(=O)c2cccc(C(F)(F)F)c2)cc1Nc1ncnc2c(N)nc(N3CCN(C(C)C)CC3)nc12 [II-17]	13
CN1CCN(c2nc(N)c3ncnc(Nc4ccc(F)c(C(=O)Nc5cc(C(C)(C)C)n[nH]5)c4)c3n2)CC1 [I-82]	676
Cc1ccc(C(=O)Nc2cccc(C(F)(F)F)c2)cc1Nc1ncnc2c(N)nc(N3CCCN(c4ccccn4)CC3)nc12 [I-67]	3
Cc1ccc(C(=O)Nc2ccccc2)cc1Nc1ncnc2cnc(N3CCN(C)CC3)nc12 [III-190]	1540
COc1ccc(NC(=O)c2ccc(C)c(Nc3ncnc4cnc(N5CCC(N6CCOCC6)CC5)nc34)c2)cc1C(F)(F)F [III-558]	23
Cc1ccc(C(=O)Nc2ccc(Cl)c(C(F)(F)F)c2)cc1Nc1ncnc2cnc(N3CCCN(C)CC3)nc12 [III-220]	5
COc1ccc(NC(=O)c2ccc(Cl)c(Nc3ncnc4cnc(N5CCCCC5)nc34)c2)cc1C(F)(F)F [III-10]	6
CN(C)C1CCN(c2ncc3ncnc(Nc4cc(C(=O)Nc5cc(C(C)(C)C)on5)ccc4F)c3n2)C1 (centres unmarked) [III-399]	2
Cc1ccc(C(=O)Nc2ccc(Cl)c(C(F)(F)F)c2)cc1Nc1ncnc2c(N)nc(N3CCN(C)CC3)nc12 [I-74]	3
O=C(Nc1cc(C(F)(F)F)ccn1)c1ccc(F)c(Nc2ncnc3cnc(N4CCOCC4)nc23)c1 [III-393]	1
COc1ccc(C(F)(F)F)cc1NC(=O)c1ccc(C)c(Nc2ncnc3cnc(N4CCN(C)CC4)nc23)c1 [III-299]	5
